For one experiment, the system named is PKCβI. To be noted: reported selectivity profile, ref not given; cited from earlier work.
Experiment [1] addresses T1, A2BAR (Homo sapiens, UniProt P29275).
T1 sequence (P29275 1-332): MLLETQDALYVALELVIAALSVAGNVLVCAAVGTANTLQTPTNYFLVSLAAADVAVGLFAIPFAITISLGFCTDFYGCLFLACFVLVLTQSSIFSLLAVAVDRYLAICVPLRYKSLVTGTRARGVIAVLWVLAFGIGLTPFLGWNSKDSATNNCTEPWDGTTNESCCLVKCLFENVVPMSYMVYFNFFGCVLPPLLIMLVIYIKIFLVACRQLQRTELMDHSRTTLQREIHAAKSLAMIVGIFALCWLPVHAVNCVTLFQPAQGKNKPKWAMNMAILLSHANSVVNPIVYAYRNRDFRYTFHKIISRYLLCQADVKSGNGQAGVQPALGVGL
Briefly: cAMP accumulation assay in naive HEK293 cells. To be noted: naive HEK293 cells, PMA 1 μM, BAY 10 μM. It counts as cell-based. A general note: cAMP levels reflect the balance of adenylyl cyclase and phosphodiesterase activity.

Experiment [2] deals with T1, A2BAR. The experiment in a line: cAMP accumulation assay in HEK293-A2B cells. It counts as cell-based. Particulars: HEK293-A2B cells.
Another experiment has as its system PKCα. Particulars: reported selectivity profile, ref not given; cited from earlier work.
The next experiment concerns PKCγ. To be noted: reported selectivity profile, ref not given; cited from earlier work.
The subject of the next experiment is PKCβ2. Particulars: reported selectivity profile, ref not given; cited from earlier work.
Another experiment has as its system PKCθ. To be noted: reported selectivity profile, ref not given; cited from earlier work.
A further experiment concerns PKCδ. Particulars: reported selectivity profile, ref not given; cited from earlier work.
The subject of the next experiment is PKCβ. Particulars: reported selectivity profile, ref not given; cited from earlier work.

The text below walks through data of PMC10316653 (iScience, 2023).

Structures are written as SMILES.

By IC50 is commonly meant the concentration at which inhibition is half-maximal. With `Cn1c2ccccc2c2c3c(c4c5ccccc5n(CCC#N)c4c21)CNC3=O` [GO6976], the IC50 in the experiment on PKCβI is 6.2 nM; in the experiment with PKCα, 2.3 nM. Further, the “effect on PKC (PMA)-induced enhancement of BAY-induced cAMP accumulation” value (from here on “effect on PKC (PMA)-induced enhancement”) at A2BAR [1] (inhibitor 1 μM) is listed as “modest but significant inhibition”. In addition, on A2BAR [2] (inhibitor 30 nM), the “effect on PKC-induced A2BAR activation (cAMP)” value was “lack of inhibition”.
Take `CN(C)C[C@@H]1CCn2cc(c3ccccc32)C2=C(C(=O)NC2=O)c2cn(c3ccccc23)CCO1` [LY333531]: the results for the IC50 in the experiment with PKCβI, in the experiment on PKCγ and with PKCβ2 were […], […] and […], respectively. Moreover, the “effect on PKC (PMA)-induced enhancement” value on A2BAR [1] (inhibitor 30 nM) is reported as “did not inhibit PMA-induced enhancement”. Also, the figures for the “effect on PKC-induced A2BAR activation (cAMP)” value on A2BAR [2] (inhibitor 30 nM) and on A2BAR [2] (inhibitor 1 μM) were “lack of inhibition” and “significant inhibition”, respectively.
Consider `CC(C)[C@@](C)(O)[C@@H]1CN(c2nc(-c3[nH]nc4ncccc34)c(F)cc2Cl)CCN1` [VTX-27], for which the “effect on PKC (PMA)-induced enhancement” value at A2BAR [1] (inhibitor 1 μM) is “did not significantly inhibit”. For the same compound, the IC50 in the experiment with PKCθ was 0.08 nM; in the experiment with PKCδ it was 16 nM.
For the compound `Cn1cc(C2=C(c3cn(C4CCN(Cc5ccccn5)CC4)c4ccccc34)C(=O)NC2=O)c2ccccc21` [enzastaurin], the “effect on PKC (PMA)-induced enhancement” value on A2BAR [1] (inhibitor 30 nM) was “did not inhibit PMA-induced enhancement”. In addition, the IC50 was […] in the experiment on PKCγ and […] in the experiment with PKCβ.
